# Test results reported in publication PMC3914206.
# Target: T1, panel of 442 kinases (Homo sapiens, UniProt P52333)
# T1 construct: purchased KINOMEscan
# T1 sequence (P52333 1-1124): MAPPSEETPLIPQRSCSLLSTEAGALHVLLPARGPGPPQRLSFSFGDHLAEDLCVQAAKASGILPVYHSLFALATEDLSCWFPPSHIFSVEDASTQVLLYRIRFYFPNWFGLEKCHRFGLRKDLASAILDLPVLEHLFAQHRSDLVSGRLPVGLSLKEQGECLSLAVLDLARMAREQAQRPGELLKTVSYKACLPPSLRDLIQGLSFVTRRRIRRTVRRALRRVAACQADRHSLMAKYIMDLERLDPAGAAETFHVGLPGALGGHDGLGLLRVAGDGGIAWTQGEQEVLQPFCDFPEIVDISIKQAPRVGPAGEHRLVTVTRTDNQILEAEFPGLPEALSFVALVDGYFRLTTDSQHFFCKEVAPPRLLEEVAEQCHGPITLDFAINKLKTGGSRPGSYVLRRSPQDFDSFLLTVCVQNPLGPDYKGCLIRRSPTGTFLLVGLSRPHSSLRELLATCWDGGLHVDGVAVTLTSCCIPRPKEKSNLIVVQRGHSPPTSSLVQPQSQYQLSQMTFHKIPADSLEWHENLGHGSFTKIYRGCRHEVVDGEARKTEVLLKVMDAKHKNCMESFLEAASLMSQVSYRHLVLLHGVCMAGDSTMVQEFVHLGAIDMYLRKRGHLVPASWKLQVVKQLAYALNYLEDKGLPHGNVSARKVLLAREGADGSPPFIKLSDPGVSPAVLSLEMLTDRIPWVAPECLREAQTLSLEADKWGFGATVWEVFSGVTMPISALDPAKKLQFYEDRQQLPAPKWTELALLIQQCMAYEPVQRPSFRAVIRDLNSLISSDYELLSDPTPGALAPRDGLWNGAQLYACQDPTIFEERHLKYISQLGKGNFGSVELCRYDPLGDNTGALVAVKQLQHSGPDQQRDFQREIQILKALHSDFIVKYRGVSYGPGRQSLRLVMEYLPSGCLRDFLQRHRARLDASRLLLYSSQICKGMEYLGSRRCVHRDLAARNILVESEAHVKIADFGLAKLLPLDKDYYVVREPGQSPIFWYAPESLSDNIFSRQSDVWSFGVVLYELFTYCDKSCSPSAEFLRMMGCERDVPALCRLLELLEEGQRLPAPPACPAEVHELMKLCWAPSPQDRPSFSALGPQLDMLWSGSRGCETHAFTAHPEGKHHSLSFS
# Format: binding
# Conditions: Compound Concentration 10 µM
# Text: We assessed the selectivity of members of this scaffold using the KINOMEscan methodology across a near comprehensive panel of 442 kinases [[18,27]].
row,Compound,KINOMEscan: JAK3(JH1domain-catalytic)
1,COc1cc(C(=O)N2CCC(N3CCN(C)CC3)CC2)ccc1Nc1ncc2c(n1)N(C)c1ccccc1C(=O)N2C [15 (LRRK2-IN-1)],100
2,"COc1cc(C(=O)N2CCC(N3CCN(C)CC3)CC2)ccc1Nc1ncc2c(n1)N(C1CCCC1)c1ccccc1C(=O)N2C [Compound 25, 11-cyclopentyl-2-((2-methoxy-4-(4-(4-methylpiperazin-1-yl)piperidine-1-carbonyl)phenyl)amino)-5-methyl-5H-benzo[e]pyrimido[5,4-b][1,4]diazepin-6(11H)-one]",100
3,CCOc1cc(C(=O)N2CCC(N3CCN(C)CC3)CC2)ccc1Nc1ncc2c(n1)N(C1CCCC1)c1ccccc1C(=O)N2C [Compound 26],100
